Assay results reported in PMC8833215 (2022).

Legend:
[1] = test system: 5'GAG/3'CCC internal loop RNA (Cy5-labeled model of pri-miR-27a's Drosha site) (RNA, mismatch bulge abasic) CUGAGGUGAAACAUCCCAG; test: microscale thermophoresis; conditions: 1x Binding Buffer; for Kd: 0.1% Tween-20, 10 nM Cy5-RNA, room temperature
[2] = test system: fully paired RNA (loop mutated to a base pair) (RNA, hairpin) CUGAGGUGAAACAUCUCAG; test: microscale thermophoresis; conditions: 1x Binding Buffer, 0.1% Tween-20, room temperature
[3] = test system: 5'CAG/3'GCC internal loop RNA (closing GC mutated to CG) (RNA, mismatch bulge abasic) CUCAGGUGAAACAUCCGAG; test: microscale thermophoresis; conditions: 1x Binding Buffer, 0.1% Tween-20, room temperature; for Kd: no saturable binding
[4] = test system: WT pri-miR-27a (unlabeled miR-27a precursor) (RNA, miRNA) GAGAGAGGCCCCGAAGCCUGUGCCUGGCCUGAGGAGCAGGGCUUAGCUGCUUGUGAGCAGGGUCCACACCAAGUCGUGUUCACAGUGGCUAAGUUCCGCCCCCCAGGCCCUCACCUCCUCUGGCCUUGCC; test: competitive binding assay; conditions: 100 nM compound; competes with Cy5-labeled model of the Drosha site
[5] = test system: mutated pri-miR-27a (both 5'GAG/3'CCC loops mutated to base pairs) (RNA, miRNA) GAGAGAGGCCCCGAAGCCUGUGCCUGGCCUGAGGAGCAGGGCUUAGCUGCUUGUGAGCAGGGUCCACACCAAGUCGUGUUCACAGUGGCUAAGUUCCGCUCCUCAGGCCCUCACCUCCUCUGGCCUUGCC; test: competitive binding assay; conditions: 100 nM compound; competes with Cy5-labeled model of the Drosha site

binding ([1]; 0.1% Tween-20, room temperature) | binding [2] | binding [3] | Kd [4] [µM] | Kd [1] [µM] | binding ([2]; no saturable binding) | Kd [3] [µM] | binding [5] | SMILES
no | no | no |  |  |  |  |  | C#CCN(CC(N)=O)C(=O)C[C@H](Cc1c[nH]c2ccccc12)NC(=O)[C@@H]1C[C@@H](NC(=O)Cn2c(=O)[nH]c3ccccc3c2=O)CN1
 |  |  | 0.04 ± 0.03 | 0.09 ± 0.02 | no | > 50 | no | C#CCN(CC(N)=O)C(=O)C[C@H](Cc1c[nH]c2ccccc12)NC(=O)[C@@H]1C[C@H](NC(=O)Cn2c(=O)[nH]c3ccccc3c2=O)CN1
 |  |  |  | 0.7 ± 0.1 | no | > 50 |  | C#CCN(CC(N)=O)C(=O)[C@@H]1CCN1C(=O)[C@@H]1C[C@H](N)CN1C(=O)c1ccccc1C(=O)N1CCOCC1
 |  |  |  | 0.53 ± 0.09 | no | > 50 |  | C#CCN(CC(N)=O)C(=O)[C@H](Cc1ccccc1C#N)NC(=O)[C@@H]1C[C@H](NC(=O)[C@H]2CCCO2)CN1
